These results are taken from patent US20030212102A1, “Novel solid dispersion compositions” (priority 2002, published 2003).

Converted amounts (≈) assume the structure as drawn.

The data set can be described thus: Solubility and dissolution in simulated gastric fluid, USP Apparatus 2, non-sink conditions. It is filed as physicochemical. As to conditions: simulated gastric fluid without enzymes, 37 °C, thermodynamic from solid; simulated gastric fluid without enzyme, pH 1.2; read-out: in vitro solubility. How it is done: Physical matrix mixtures and melted carriers were made and tested to compare the baseline solubility and background absorbance to that of the solid dispersions. The resultant solid dispersion were yellow-orange hard solids with some air pockets formed by the cooling process. The dispersion solubility and dissolution rate were analyzed by USP Apparatus 2 dissolution. The dissolution was performed under the following conditions: SGF dissolution media, 0.1 M HCL without enzymes pH 1.2; non-sink conditions of 350-370 mL media; paddle speed of 50 rpm; temperature of 37° C.; 10 mL sample pull not replaced. Analysis of the (S)-(−)-N-(α-Ethylbenzyl)-3-hydroxy-2-phenylquinoline-4-carboxamide was performed using a UV spectrophotometer at 359 nm compared to standard solutions.

As usually defined, the solubility is how much of the substance goes into solution per volume. Regarding `CC[C@H](NC(=O)c1c(O)c(-c2ccccc2)nc2ccccc12)c1ccccc1` [(S)-(−)-N-(α-Ethylbenzyl)-3-hydroxy-2-phenylquinoline-4-carboxamide], the solubility was 31 µg/mL (≈ 81.1 µM).
